Measured values as given in patent publication US20060074243A1, “Hydroxamic acid and amide compounds and their use as protease inhibitors” (Pharmacia Corporation, priority 2002, published 2006).

What was measured:
Test in all cases: In vitro MMP inhibition analysis (fluorogenic peptide substrate cleavage), Ki
Type in all cases: biochemical
Conditions in all cases: Table 1
Human recombinant MMP-1 = target: T1, Human recombinant MMP-1 (Homo sapiens, UniProt P03956)
T1 construct: made in house; host or cells: MMP-1-transfected HT-1080 cells (spent media)
T1 sequence (P03956 100-469): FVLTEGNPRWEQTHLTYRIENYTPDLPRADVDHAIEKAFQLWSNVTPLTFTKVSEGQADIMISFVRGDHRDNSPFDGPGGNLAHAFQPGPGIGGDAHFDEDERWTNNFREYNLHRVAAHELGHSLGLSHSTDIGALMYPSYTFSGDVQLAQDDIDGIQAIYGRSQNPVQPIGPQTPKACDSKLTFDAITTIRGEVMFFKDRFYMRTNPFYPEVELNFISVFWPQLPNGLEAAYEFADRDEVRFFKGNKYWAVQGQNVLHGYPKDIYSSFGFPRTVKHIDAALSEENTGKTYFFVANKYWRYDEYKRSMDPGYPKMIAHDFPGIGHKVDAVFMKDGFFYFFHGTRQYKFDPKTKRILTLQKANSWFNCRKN
Experimental: (§1) Several compounds and salts were analyzed in an in vitro assay to determine their ability to inhibit the MMP cleavage of peptide substrates. Inhibition constant (Ki) were calculated from the assayed compound-MMP interactions.
(§2) Human recombinant MMP-1, MMP-2, MMP-9, MMP-13, and MMP-14 were used in this assay. All enzymes were prepared in Assignee's laboratories following usual laboratory procedures. Protocols for the preparation and use of these enzymes are available in the scientific literature. See, e.g., Enzyme Nomenclature (Academic Press, San Diego, Calif., 1992) (and the citations therein). See also, Frije et al., J. Biol. Chem., 26(24), 16766-73 (1994).
The MMP-1 proenzyme was purified from the spent media of MMP-1-transfected HT-1080 cells provided by Dr. Harold Welgus of Washington University (St. Louis, Mo.). The protein was purified on a zinc chelating column.
(§3) All MMPs were activated using 4-aminophenylmercuric acetate (“APMA”, Sigma Chemical, St. Louis, Mo.) or trypsin. MMP-9 also was activated using human recombinant MMP-3 (purified in Assignee's laboratory following standard cloning and purification techniques).
(§4) The following fluorogenic, methoxycoumarin-containing polypeptide substrate (I) was used in the MMP inhibition assays: MCA-ArgProLeuGlyLeuDpaAlaArgGluArgNH2 (I) “MCA” is 7-methoxycoumarin-4-yl acetyl. Substrate (I) was prepared Assignee's laboratory. In the absence of MMP inhibitory activity, the substrate is cleaved at the Gly-Leu peptide bond. This cleavage separates the highly fluorogenic peptide from the 2,4-dinitrophenyl quencher, thus resulting in increase of fluorescent intensity.
(§5) The stock solutions of the assayed compounds and salts were prepared in […] (DMSO). These stock solutions were diluted in Buffer A (100 mM Tris-HCl, 100 mM NaCl, 10 mM CaCl2, 0.05% polyoxyethylene 23 lauryl ether, pH 7.5) to obtain solutions with different compound concentrations, i.e., assay solutions with different concentrations of the assayed […] compound. The experiment controls contained the same amount of Buffer A/DMSO as the assayed sample, but contained none of the tested compound or salt.
(§6) The assays from which the Ki determinations were made were performed as follows. The assayed compound samples were incubated in separate wells of untreated white polystyrene plates (Nunc Nalgene International, Rochester, N.Y.), and analyzed on a Tecan SpectraFlour Plus plate reader. The excitation wavelength was 330 nm, and the emission wavelength—420 nm. All samples (assayed compounds and controls) were incubated in separate plate wells at room temperature for 1 hr in the presence of 4 μM of MMP substrate (I). In the absence of MMP inhibitory activity, substrate (I) was cleaved at the Gly-Leu bond resulting in an increase of relative fluorescence. Inhibition was observed as a reduced rate of this increase in relative fluorescence. […] This protocol is a modification of method by Knight et al., FEBS Lett., 296(3), 263-266 (1992). Apparent inhibitory constants were determined by non-linear regression of reaction velocity as a function of inhibitor and enzyme concentration using Morrison's equation, as described by Kuzmic, Anal. Biochem. 286, 45-50 (2000). Modifications were made in the non-linear regression method to allow a common control reaction rate and effective enzyme concentration to be shared between all dose-response relationships on a given assay plate. Since the substrate concentration was chosen to be at or below the Km, the apparent Ki's from this analysis were reported as Ki's without correction for the influence of substrate.
(§7) The above protocols were used to determine Ki constants for the compounds in Examples 2-35 above. All Ki values in Table 1 are given in nM units.

Human recombinant MMP-2 = target: T2, Human recombinant MMP-2 (Homo sapiens, UniProt P08253)
T2 construct: made in house; host or cells: MMP-2-transfected p2AHT2 cells
T2 sequence (P08253 110-660): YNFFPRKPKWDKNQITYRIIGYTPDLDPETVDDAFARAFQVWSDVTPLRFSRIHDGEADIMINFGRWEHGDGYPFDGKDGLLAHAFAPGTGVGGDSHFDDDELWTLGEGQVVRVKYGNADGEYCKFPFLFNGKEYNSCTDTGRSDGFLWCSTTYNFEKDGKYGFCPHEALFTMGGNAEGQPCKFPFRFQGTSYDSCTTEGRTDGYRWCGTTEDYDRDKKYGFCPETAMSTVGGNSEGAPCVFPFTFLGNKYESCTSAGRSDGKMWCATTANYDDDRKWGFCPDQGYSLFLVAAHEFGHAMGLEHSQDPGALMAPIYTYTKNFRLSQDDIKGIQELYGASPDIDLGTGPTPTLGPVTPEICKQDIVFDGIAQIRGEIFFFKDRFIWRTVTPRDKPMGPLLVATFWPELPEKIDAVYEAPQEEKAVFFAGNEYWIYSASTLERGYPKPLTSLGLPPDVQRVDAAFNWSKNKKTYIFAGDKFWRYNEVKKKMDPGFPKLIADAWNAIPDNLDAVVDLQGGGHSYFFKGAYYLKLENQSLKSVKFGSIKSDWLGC
Experimental: as §1, §2
The MMP-2 proenzyme was purified by gelatin Sepharose chromatography from MMP-2-transfected p2AHT2 cells provided by Dr. Gregory Goldberg of Washington University (St. Louis, Mo.).
as §3, §4, §5, §6, §7

Human recombinant MMP-9 = target: T3, Human recombinant MMP-9 (Homo sapiens, UniProt P14780)
T3 construct: made in house; host or cells: MMP-9-transfected HT1080 cells (spent media)
T3 sequence (P14780 107-707 limits assumed): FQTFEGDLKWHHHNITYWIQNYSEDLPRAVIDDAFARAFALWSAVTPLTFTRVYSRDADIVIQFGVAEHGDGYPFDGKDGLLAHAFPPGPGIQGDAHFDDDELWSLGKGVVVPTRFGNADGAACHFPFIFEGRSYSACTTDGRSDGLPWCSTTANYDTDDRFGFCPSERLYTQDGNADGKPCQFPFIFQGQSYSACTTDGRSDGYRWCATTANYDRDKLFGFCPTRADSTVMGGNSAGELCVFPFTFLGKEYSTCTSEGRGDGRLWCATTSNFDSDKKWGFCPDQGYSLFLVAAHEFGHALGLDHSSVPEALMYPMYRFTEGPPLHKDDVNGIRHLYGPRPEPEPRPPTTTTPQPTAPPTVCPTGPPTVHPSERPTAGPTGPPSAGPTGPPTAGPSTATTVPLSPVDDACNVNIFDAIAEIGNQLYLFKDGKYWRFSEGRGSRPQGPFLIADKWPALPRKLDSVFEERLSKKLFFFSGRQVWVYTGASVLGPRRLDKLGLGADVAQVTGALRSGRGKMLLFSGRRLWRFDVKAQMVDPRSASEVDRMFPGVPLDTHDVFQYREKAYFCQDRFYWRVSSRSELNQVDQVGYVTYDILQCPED
Experimental: as §1, §2
The MMP-9 proenzyme was purified by gelatin Sepharose chromatography from spent media of MMP-9-transfected HT1080 cells provided by Dr. Howard Welgus of Washington University (St. Louis, Mo.).
as §3, §4, §5, §6, §7

Human recombinant MMP-14 = target: T4, Human recombinant MMP-14 (Homo sapiens, UniProt P50281)
T4 construct: The catalytic domain enzyme was expressed in E. coli inclusion bodies, solubilized in urea; made in house
Experimental: as §1, §2
The MMP-14 full length cDNA was provided by Dr. Gregory Goldberg of Washington University (St. Louis, Mo.). The catalytic domain enzyme was expressed in E. coli inclusion bodies, solubilized in urea, purified on a preparative […] reverse phase HPLC column, and then refolded in the presence of zinc acetate and purified for use.
as §3, §4, §5, §6, §7

Row | Structure (SMILES) | Ki (Human recombinant MMP-1) [nM] | Ki (Human recombinant MMP-2) [nM] | Ki (Human recombinant MMP-9) [nM] | Ki (Human recombinant MMP-14) [nM]
1 | O=C(NO)C1(S(=O)(=O)c2ccc(-c3ccc(CCC(F)(F)C(F)(F)F)cn3)cc2)CCOCC1 [Example 36] | 4720 | 0.0708 | 0.258 | 523
2 | CCOCCOc1ccc(-c2ccc(S(=O)(=O)C3(C(=O)NO)CCOCC3)cc2)cc1 [Example 37] | 1450 | 0.089 | 3.51 | 632
3 | O=C(NO)C1(S(=O)(=O)c2ccc(-c3ccc(OC(F)(F)C(F)F)cc3)cc2)CCN(CCl)CC1 [Example 38] | 650 | 0.037 | 0.126 | 446
4 | COCCN1CCC(C(=O)NO)(S(=O)(=O)c2ccc(-c3ccc(OC(F)(F)C(F)F)cc3)cc2)CC1 [Example 39] | 335 | 0.009 | 0.045 | 185
5 | O=C(NO)C1(S(=O)(=O)c2ccc(-c3ccc(OC(F)(F)C(F)F)cc3)cc2)CCN(C2CC2)CC1 [Example 40] | 508 | 0.074 | 0.102 | 292
6 | O=C(NO)C1(S(=O)(=O)c2ccc(-c3ccc(CCC(F)(F)C(F)(F)F)cc3)cc2)CCOCC1 [Example 41] | 5110 | 0.375 | 0.937 | 1140
7 | O=C(NO)C1(S(=O)(=O)c2ccc(-c3ccc(CCCC(F)(F)F)cc3)cc2)CCOCC1 [Example 42] | 2710 | 0.339 | 0.642 | 800
8 | COCCN1CCC(C(=O)NO)(S(=O)(=O)c2ccc(-c3ccc(CCCC(F)(F)F)cc3)cc2)CC1 [Example 43] | 6870 | 0.29 | 0.43 | 1590
9 | O=C(NO)C1(S(=O)(=O)c2ccc(-c3ccc(CCCC(F)(F)F)cc3)cc2)CCN(C2CC2)CC1 [Example 44] | 8690 | 0.48 | 0.68 | 2160
10 | O=C(NO)C1(S(=O)(=O)c2ccc(-c3ccc(CCC(F)(F)C(F)(F)F)cc3)cc2)CCN(C2CC2)CC1 [Example 45] | > 10000 | 0.55 | 1.16 | 1730
11 | COCCN1CCC(C(=O)NO)(S(=O)(=O)c2ccc(-c3ccc(CCC(F)(F)C(F)(F)F)cc3)cc2)CC1 [Example 46] | > 10000 | 0.21 | 0.38 | 1860
12 | COCCC(C(=O)NO)S(=O)(=O)c1ccc(-c2ccc(CCCC(F)(F)F)cc2)cc1 (stereo not shown) [Example 47] | > 10000 | 1.17 | 2.8 | 5260
13 | CC(C)(C)N1CCC(C(=O)NO)(S(=O)(=O)c2ccc(-c3ccc(CCCC(F)(F)F)cc3)cc2)CC1 [Example 48] | > 10000 | 1.84 | 3.54 | 8450
